{"source": "patent US10543262B2", "about": "“Combination therapy utilizing P2X7 peptides” (BIOSCEPTRE (AUST) PTY LTD, priority 2011, dated 2020)", "system": "nfP2X7 receptors", "test": "ELISA of specific anti-nfP2X7 antibody response in patient serum after immunisation with peptide-KLH conjugate", "type": "in vivo, human", "procedure": "Peptide immunogen was synthesised to high purity in the form GHNYTTRNILPGLNITC (SEQ ID NO:2) to which was added the cross-linker maleimidocaproyl-N-hydroxysuccinimide (MCS) at the C-terminal Cys residue. The peptide was cross-linked to a carrier protein Keyhole Limpet Hemocyanin (KLH) such that the average percentage of peptide to total peptide-protein conjugate was 40%. This peptide or the alternative peptide […] (SEQ ID NO:5) similarly conjugated to KLH constituted selective epitope targets, primary and compound respectively that enabled differentiation of the nfP2X7 receptors to be made from native receptors.\nThe peptide-protein conjugate was added at a concentration of 2.5 mg/mL conjugate (1 mg/mL peptide) dropwise with thorough mixing in the adjuvant in an amount equal to 0.5 mL conjugate to 0.75 mL adjuvant containing 0.5 mg of target peptide epitope.\nThe immunisation schedule consisted of a primary inoculation (two injections subcutaneously and two injections intramuscularly) of a total of 0.5 mg peptide followed a month later with a boost applied the same way with 0.3 mg peptide. Serum samples were collected immediately prior to and a week post injections. Inoculation is ideally administered no less than a month after the final infusion of anti-nfP2X7 antibody to ensure no sequestration of the immunogen by residual specific anti-nfP2X7 antibody infusate.\nSpecific anti-nfP2X7 antibody responses were measured by ELISA. In brief, the ELISA plate was coated with specific target peptide epitope, either naked or conjugated to a carrier other than the one against which the antibody response was generated, over which patient serum is added in a descending concentration. After washing, an appropriate secondary anti-human antibody (anti-IgM or anti-IgG types) is applied to detect and determine the concentration of specific human anti-nfP2X7 antibody present in the patient serum in the form of IgM or IgG.", "key": {"[1]": {"conditions": "following the primary inoculation (0.5 mg peptide)"}}}
{"sequence": "GHNYTTRNILPGLNITC", "values": [{"measurement": "specific anti-nfP2X7 IgM concentration in patient serum (ELISA)", "setting": "following the boost (0.3 mg peptide)", "value": "returned to a baseline of zero"}, {"measurement": "specific anti-nfP2X7 IgG concentration in patient serum (ELISA)", "setting": "following the boost, provided no nfP2X7 receptor sink is present on extant tumor", "value": "higher concentration than the original IgM"}, {"measurement": "specific anti-nfP2X7 IgG in patient serum (ELISA)", "setting": "[1]", "value": "no IgG is detectable"}, {"measurement": "specific anti-nfP2X7 IgM in patient serum (ELISA)", "setting": "[1]", "value": "a small amount of IgM is detected"}, {"measurement": "circulating anti-nfP2X7 antibody response in serum (ELISA)", "setting": "patient with moderate tumor burden, Week 13, 9 weeks post boost", "value": "small level"}, {"measurement": "circulating antibody present in serum (ELISA)", "setting": "patient with moderate tumor burden, intermediate measurements Weeks 5 to 12", "value": "little circulating antibody was present"}, {"measurement": "antibodies to the peptide detected in serum (ELISA)", "setting": "patient with moderate tumor burden, pre-boost serum at Week 4, 4 weeks post initial immunisation", "value": "No antibodies were detected"}, {"measurement": "circulating antibody levels detected in serum (ELISA)", "setting": "patient with very small residual tumor burden, Week 5, 1 week post boost", "value": "much higher than in the patient who had a moderate tumor mass"}, {"measurement": "specific endogenous anti-nfP2X7 antibody detected in the serum", "setting": "patients without nfP2X7 receptor sink (original tumor cleared), after boost", "value": "~5", "unit": "mg/kg"}]}
